Reference: PubChem BioAssay (NCI)
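Exposure lasted 48 hours, with cells grown in 96-well plates and compounds tested at five concentrations. GI50 = concentration required for 50% inhibition of growth. TGI marks complete inhibition of growth.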

Test system: SR leukemia
Assay: NCI anticancer screen, dose series, 48 h

Compound | TGI
COC(=O)C1C(O)C(C(=O)OC)C(C)N(C)C1C (configuration not stated) | > 100 µM
c1ccc2c(c1)c1c(n2CCOCCN2CCOCC2)CCCC1 | > 100 µM
CCOC(=O)c1c(-c2ccccc2)c(-c2ccccc2)cn1C | > 10 µM

Test system: SW-620 colon
Assay: NCI anticancer screen, dose series, 48 h

Compound | TGI | GI50
C=C1c2cc3c(cc2CC12Cc1cc4c(cc1C2=O)CCC4)CCC3 (configuration not stated) | > 100 µM | –
NNC1=N/C(=C\c2ccco2)C(Cl)=N1 | > 100 µM | –
CC1=C2C(=C[C@H]3[C@]4(C)CCCC(C)(C)[C@H]4CC[C@]34O[C@H]24)OC1=O | > 100 µM | –
COc1cc2c(Nc3cc(Cl)c(OC)c(Cl)c3)c(C#N)cnc2cc1OCCCN1CCN(C)CC1 | 6.03 µM | 2.18 µM
COC(=O)C1C(O)C(C(=O)OC)C(C)N(C)C1C (configuration not stated) | > 100 µM | –
c1ccc2c(c1)c1c(n2CCOCCN2CCOCC2)CCCC1 | > 100 µM | –

Test system: T-47D breast
Assay: NCI anticancer screen, dose series, 48 h

Compound | TGI | GI50
C=C1c2cc3c(cc2CC12Cc1cc4c(cc1C2=O)CCC4)CCC3 (configuration not stated) | > 100 µM | –
NNC1=N/C(=C\c2ccco2)C(Cl)=N1 | > 100 µM | –
COc1cc2c(Nc3cc(Cl)c(OC)c(Cl)c3)c(C#N)cnc2cc1OCCCN1CCN(C)CC1 | 9.65 µM | 2.02 µM
c1ccc2c(c1)c1c(n2CCOCCN2CCOCC2)CCCC1 | > 100 µM | –

Test system: TK-10 renal
Assay: NCI anticancer screen, dose series, 48 h

Compound | TGI | GI50
C=C1c2cc3c(cc2CC12Cc1cc4c(cc1C2=O)CCC4)CCC3 (configuration not stated) | > 100 µM | –
NNC1=N/C(=C\c2ccco2)C(Cl)=N1 | > 100 µM | –
CC1=C2C(=C[C@H]3[C@]4(C)CCCC(C)(C)[C@H]4CC[C@]34O[C@H]24)OC1=O | > 100 µM | –
COc1cc2c(Nc3cc(Cl)c(OC)c(Cl)c3)c(C#N)cnc2cc1OCCCN1CCN(C)CC1 | 2.43 µM | 0.253 µM
COC(=O)C1C(O)C(C(=O)OC)C(C)N(C)C1C (configuration not stated) | > 100 µM | –
c1ccc2c(c1)c1c(n2CCOCCN2CCOCC2)CCCC1 | 58.6 µM | –
CCOC(=O)c1c(-c2ccccc2)c(-c2ccccc2)cn1C | > 10 µM | –

Test system: U251 CNS
Assay: NCI anticancer screen, dose series, 48 h

Compound | TGI | GI50
C=C1c2cc3c(cc2CC12Cc1cc4c(cc1C2=O)CCC4)CCC3 (configuration not stated) | > 100 µM | –
NNC1=N/C(=C\c2ccco2)C(Cl)=N1 | > 100 µM | –
CC1=C2C(=C[C@H]3[C@]4(C)CCCC(C)(C)[C@H]4CC[C@]34O[C@H]24)OC1=O | > 100 µM | –
COc1cc2c(Nc3cc(Cl)c(OC)c(Cl)c3)c(C#N)cnc2cc1OCCCN1CCN(C)CC1 | 4.05 µM | 1.92 µM
COC(=O)C1C(O)C(C(=O)OC)C(C)N(C)C1C (configuration not stated) | > 100 µM | –
c1ccc2c(c1)c1c(n2CCOCCN2CCOCC2)CCCC1 | 64.6 µM | –
CCOC(=O)c1c(-c2ccccc2)c(-c2ccccc2)cn1C | > 10 µM | –

Test system: UACC-257 melanoma
Assay: NCI anticancer screen, dose series, 48 h

Compound | TGI | GI50
C=C1c2cc3c(cc2CC12Cc1cc4c(cc1C2=O)CCC4)CCC3 (configuration not stated) | > 100 µM | –
NNC1=N/C(=C\c2ccco2)C(Cl)=N1 | > 100 µM | –
CC1=C2C(=C[C@H]3[C@]4(C)CCCC(C)(C)[C@H]4CC[C@]34O[C@H]24)OC1=O | > 100 µM | –
COc1cc2c(Nc3cc(Cl)c(OC)c(Cl)c3)c(C#N)cnc2cc1OCCCN1CCN(C)CC1 | 3.07 µM | 1.67 µM
COC(=O)C1C(O)C(C(=O)OC)C(C)N(C)C1C (configuration not stated) | > 100 µM | –
c1ccc2c(c1)c1c(n2CCOCCN2CCOCC2)CCCC1 | 47.8 µM | –
CCOC(=O)c1c(-c2ccccc2)c(-c2ccccc2)cn1C | > 10 µM | –

Test system: UACC-62 melanoma
Assay: NCI anticancer screen, dose series, 48 h

Compound | TGI | GI50
CC1=C2C(=C[C@H]3[C@]4(C)CCCC(C)(C)[C@H]4CC[C@]34O[C@H]24)OC1=O | > 100 µM | –
COc1cc2c(Nc3cc(Cl)c(OC)c(Cl)c3)c(C#N)cnc2cc1OCCCN1CCN(C)CC1 | 7.9 µM | 2.73 µM
COC(=O)C1C(O)C(C(=O)OC)C(C)N(C)C1C (configuration not stated) | > 100 µM | –
CCOC(=O)c1c(-c2ccccc2)c(-c2ccccc2)cn1C | > 10 µM | –

Test system: UO-31 renal
Assay: NCI anticancer screen, dose series, 48 h

Compound | TGI | GI50
C=C1c2cc3c(cc2CC12Cc1cc4c(cc1C2=O)CCC4)CCC3 (configuration not stated) | > 100 µM | –
NNC1=N/C(=C\c2ccco2)C(Cl)=N1 | > 100 µM | –
CC1=C2C(=C[C@H]3[C@]4(C)CCCC(C)(C)[C@H]4CC[C@]34O[C@H]24)OC1=O | > 100 µM | –
COc1cc2c(Nc3cc(Cl)c(OC)c(Cl)c3)c(C#N)cnc2cc1OCCCN1CCN(C)CC1 | 5.47 µM | 0.641 µM
COC(=O)C1C(O)C(C(=O)OC)C(C)N(C)C1C (configuration not stated) | > 100 µM | –
c1ccc2c(c1)c1c(n2CCOCCN2CCOCC2)CCCC1 | > 100 µM | –
CCOC(=O)c1c(-c2ccccc2)c(-c2ccccc2)cn1C | > 10 µM | –
